Data from ChEMBL document CHEMBL3044672, “N9- and N7-(Chloromethyl Phenymethyl)Chloropurine Derivatives from , '-Dichloroxylenes: Synthesis and Anticancer Activity” (2005).

Assays:
Format in all cases: functional
RPMI-8226 = experiment: Cytotoxicity against Homo sapiens (human) RPMI8226 cells after 48 hr by sulforhodamine B assay; conditions: RPMI-8226, 48 h
SNB-75 = experiment: Cytotoxicity against Homo sapiens (human) SNB75 cells after 48 hr by sulforhodamine B assay; conditions: SNB-75, 48 h
SN12C = experiment: Cytotoxicity against Homo sapiens (human) SN12C cells after 48 hr by sulforhodamine B assay
PC-3 = experiment: Cytotoxicity against Homo sapiens (human) PC3 cells after 48 hr by sulforhodamine B assay; conditions: PC-3, 48 h
SF-268 [1] = experiment: Cytotoxicity against Homo sapiens (human) SF268 cells after 48 hr by sulforhodamine B assay; conditions: SF-268, 48 h
K562 = experiment: Cytotoxicity against Homo sapiens (human) K562 cells after 48 hr by sulforhodamine B assay; conditions: K562, 48 h
MDA-MB-231 = experiment: Cytotoxicity against Homo sapiens (human) MDA-MB-231 cells after 48 hr by sulforhodamine B assay; conditions: MDA-MB-231, 48 h
SNB-19 = experiment: Cytotoxicity against Homo sapiens (human) SNB19 cells after 48 hr by sulforhodamine B assay; conditions: SNB-19, 48 h
SF-539 = experiment: Cytotoxicity against Homo sapiens (human) SF539 cells after 48 hr by sulforhodamine B assay; conditions: SF-539, 48 h
SK-OV-3 = experiment: Cytotoxicity against Homo sapiens (human) SKOV3 cells after 48 hr by sulforhodamine B assay; conditions: SK-OV-3, 48 h
LOX IMVI = experiment: Cytotoxicity against Homo sapiens (human) LOXIMVI cells after 48 hr by sulforhodamine B assay
HT-29 = experiment: Cytotoxicity against Homo sapiens (human) HT-29 cells after 48 hr by sulforhodamine B assay; conditions: HT-29, 48 h
SF-268 [2] = experiment: Cytotoxicity against Homo sapiens (human) SF268 cells assessed as cell growth at 10^-4 M after 48 hr by […] assay; conditions: SF-268, 48 h, read-out: Activity
HOP-62 = experiment: Cytotoxicity against Homo sapiens (human) HOP62 cells after 48 hr by sulforhodamine B assay; conditions: HOP-62, 48 h
KM12 = experiment: Cytotoxicity against Homo sapiens (human) KM12 cells after 48 hr by sulforhodamine B assay; conditions: KM12, 48 h
UACC-62 = experiment: Cytotoxicity against Homo sapiens (human) UACC62 cells after 48 hr by sulforhodamine B assay; conditions: UACC-62, 48 h
OVCAR-4 = experiment: Cytotoxicity against Homo sapiens (human) OVCAR4 cells after 48 hr by sulforhodamine B assay; conditions: OVCAR-4, 48 h
RXF 393 = experiment: Cytotoxicity against Homo sapiens (human) RXF393 cells after 48 hr by sulforhodamine B assay; conditions: RXF 393, 48 h
COLO 205 = experiment: Cytotoxicity against Homo sapiens (human) COLO205 cells after 48 hr by sulforhodamine B assay; conditions: COLO 205, 48 h
NCI-H522 = experiment: Cytotoxicity against Homo sapiens (human) NCI-H522 cells after 48 hr by sulforhodamine B assay; conditions: NCI-H522, 48 h
OVCAR-8 = experiment: Cytotoxicity against Homo sapiens (human) OVCAR8 cells after 48 hr by sulforhodamine B assay; conditions: OVCAR-8, 48 h
BT-549 = experiment: Cytotoxicity against Homo sapiens (human) BT549 cells after 48 hr by sulforhodamine B assay; conditions: BT-549, 48 h
EKVX = experiment: Cytotoxicity against Homo sapiens (human) EKVX cells after 48 hr by sulforhodamine B assay
SK-MEL-5 = experiment: Cytotoxicity against Homo sapiens (human) SK-MEL-5 cells after 48 hr by sulforhodamine B assay; conditions: SK-MEL-5, 48 h
MCF7 = experiment: Cytotoxicity against Homo sapiens (human) MCF7 cells after 48 hr by sulforhodamine B assay; conditions: MCF7, 48 h
NCI-H460 = experiment: Cytotoxicity against Homo sapiens (human) NCI-H460 cells assessed as cell growth at 10^-4 M after 48 hr by Alamar blue assay; conditions: NCI-H460, 48 h, read-out: Activity
NCI-H23 = experiment: Cytotoxicity against Homo sapiens (human) NCI-H23 cells after 48 hr by sulforhodamine B assay; conditions: NCI-H23, 48 h
[3] = read-out: LC50 (the source's name)

Compound: ClCc1ccccc1Cn1cnc2ncnc(Cl)c21
- GI50 (RPMI-8226): 2080 nM
- TGI (RPMI-8226): 5.49 µM
- CC50 (RPMI-8226; [3]): 50.1 µM
- GI50 (SNB-75): 11.2 µM
- TGI (SNB-75): 26.9 µM
- CC50 (SNB-75; [3]): 63.1 µM
- GI50 (SN12C): 2950 nM
- LC50 (50% lethal concentration) (SN12C): 42.6 µM
- TGI (SN12C): 8.51 µM
- GI50 (PC-3): 4.46 µM
- LC50 (concentration causing 50% cell kill) (PC-3): 74.1 µM
- TGI (PC-3): 19.1 µM
- GI50 (SF-268 [1]): 4.78 µM
- TGI (SF-268 [1]): 24.5 µM
- CC50 (SF-268 [1]; [3]): > 100 µM
- GI50 (K562): 2230 nM
- TGI (K562): 5.88 µM
- CC50 (K562; [3]): 83.2 µM
- GI50 (MDA-MB-231): 2750 nM
- LC50 (MDA-MB-231): 25.1 µM
- TGI (MDA-MB-231): 6.91 µM
- GI50 (SNB-19): 7.24 µM
- LC50 (SNB-19): > 100 µM
- TGI (SNB-19): > 100 µM
- GI50 (SF-539): 2340 nM
- LC50 (concentration killing 50% of cells) (SF-539): 12 µM
- TGI (SF-539): 5.01 µM
- GI50 (SK-OV-3): 7.58 µM
- LC50 (SK-OV-3): 85.1 µM
- TGI (SK-OV-3): 26.9 µM
- GI50 (LOX IMVI): 1340 nM
- LC50 (LOX IMVI): 7.07 µM
- TGI (LOX IMVI): 3.09 µM
- GI50 (HT-29): 3.89 µM
- TGI (HT-29): > 100 µM
- CC50 (HT-29; [3]): > 100 µM
- growth at 100 µM (SF-268 [2]): 0%
- GI50 (HOP-62): 11.2 µM
- TGI (HOP-62): 28.8 µM
- CC50 (HOP-62; [3]): 75.9 µM
- GI50 (KM12): 3.63 µM
- TGI (KM12): 11.2 µM
- CC50 (KM12; [3]): 38 µM
- GI50 (UACC-62): 1860 nM
- LC50 (concentration causing 50% net cell kill) (UACC-62): 19.1 µM
- TGI (UACC-62): 5.12 µM
- GI50 (OVCAR-4): 4.89 µM
- LC50 (concentration killing 50% of cells) (OVCAR-4): 77.6 µM
- TGI (OVCAR-4): 20.4 µM
- GI50 (RXF 393): 1650 nM
- TGI (RXF 393): 6.54 µM
- CC50 (RXF 393; [3]): > 100 µM
- GI50 (COLO 205): 4.36 µM
- TGI (COLO 205): > 100 µM
- CC50 (COLO 205; [3]): > 100 µM
- GI50 (NCI-H522): 2810 nM
- TGI (NCI-H522): 75.9 µM
- CC50 (NCI-H522; [3]): > 100 µM
- GI50 (OVCAR-8): 2750 nM
- LC50 (concentration killing 50% of cells) (OVCAR-8): 58.9 µM
- TGI (OVCAR-8): 8.7 µM
- GI50 (BT-549): 2450 nM
- LC50 (50% lethal concentration) (BT-549): 25.1 µM
- TGI (BT-549): 6.02 µM
- GI50 (EKVX): 5.37 µM
- TGI (EKVX): 17.8 µM
- CC50 (EKVX; [3]): 45.7 µM
- GI50 (SK-MEL-5): 1380 nM
- LC50 (SK-MEL-5): 15.8 µM
- TGI (SK-MEL-5): 4.07 µM
- GI50 (MCF7): 3.63 µM
- LC50 (concentration killing 50% of cells) (MCF7): > 100 µM
- TGI (MCF7): > 100 µM
- growth at 100 µM (NCI-H460): 0%
- GI50 (NCI-H23): 5.01 µM
- TGI (NCI-H23): 17.4 µM
- CC50 (NCI-H23; [3]): 49 µM
